Laboratory results from BindingDB's records for doi:10.3109/14756366.2012.709242 (Anadolu University, 2013).

Key:
Acetylcholinesterase = Acetylcholinesterase (Electrophorus electricus, UniProt O42275); assay: Enzymatic Assay; conditions: pH 8; 25 °C
Experimental: (§1) AChE or BChE solution (50 μL) and compound solution (50 μL), which is prepared in 2% DMSO at a concentration range of 10^−1-10^−6 mM, were added to 3.0 mL phosphate buffer (pH8 ± 0.1) and incubated at 25°C for 5 min. The reaction was started by adding (DTNB) (50 μL) and ATC (10 μL) to the enzyme-inhibitor mixture. […] As a control, an identical solution of the enzyme without the inhibitor was processed following the same protocol. The blank reading contained 3.0 mL buffer, 50 μL 2% DMSO, 50 μL DTNB and 10 μL substrate. All processes were assayed in triplicate.

[1] = molecular target: Carboxylic ester hydrolase (Equus caballus, UniProt Q9N1N9); assay: Enzymatic Assay
Experimental: as §1

Sequence of Acetylcholinesterase (O42275 whole entry): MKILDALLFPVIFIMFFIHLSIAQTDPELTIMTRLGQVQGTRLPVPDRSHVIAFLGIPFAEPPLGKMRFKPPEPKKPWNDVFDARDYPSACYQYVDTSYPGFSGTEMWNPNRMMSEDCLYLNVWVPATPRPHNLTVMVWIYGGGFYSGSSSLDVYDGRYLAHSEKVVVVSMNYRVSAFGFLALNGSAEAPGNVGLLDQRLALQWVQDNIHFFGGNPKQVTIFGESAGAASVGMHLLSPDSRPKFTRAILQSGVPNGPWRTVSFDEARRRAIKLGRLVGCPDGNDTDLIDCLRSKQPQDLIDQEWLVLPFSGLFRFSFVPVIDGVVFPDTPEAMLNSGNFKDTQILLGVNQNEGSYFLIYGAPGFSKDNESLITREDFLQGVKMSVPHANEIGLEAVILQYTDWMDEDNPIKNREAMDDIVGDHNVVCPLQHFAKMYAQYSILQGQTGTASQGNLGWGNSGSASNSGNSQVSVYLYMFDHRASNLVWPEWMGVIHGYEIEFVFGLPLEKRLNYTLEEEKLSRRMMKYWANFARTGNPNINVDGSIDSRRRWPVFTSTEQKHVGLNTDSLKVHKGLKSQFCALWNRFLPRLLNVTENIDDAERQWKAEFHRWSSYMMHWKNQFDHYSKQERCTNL
Sequence of Carboxylic ester hydrolase (Q9N1N9 whole entry): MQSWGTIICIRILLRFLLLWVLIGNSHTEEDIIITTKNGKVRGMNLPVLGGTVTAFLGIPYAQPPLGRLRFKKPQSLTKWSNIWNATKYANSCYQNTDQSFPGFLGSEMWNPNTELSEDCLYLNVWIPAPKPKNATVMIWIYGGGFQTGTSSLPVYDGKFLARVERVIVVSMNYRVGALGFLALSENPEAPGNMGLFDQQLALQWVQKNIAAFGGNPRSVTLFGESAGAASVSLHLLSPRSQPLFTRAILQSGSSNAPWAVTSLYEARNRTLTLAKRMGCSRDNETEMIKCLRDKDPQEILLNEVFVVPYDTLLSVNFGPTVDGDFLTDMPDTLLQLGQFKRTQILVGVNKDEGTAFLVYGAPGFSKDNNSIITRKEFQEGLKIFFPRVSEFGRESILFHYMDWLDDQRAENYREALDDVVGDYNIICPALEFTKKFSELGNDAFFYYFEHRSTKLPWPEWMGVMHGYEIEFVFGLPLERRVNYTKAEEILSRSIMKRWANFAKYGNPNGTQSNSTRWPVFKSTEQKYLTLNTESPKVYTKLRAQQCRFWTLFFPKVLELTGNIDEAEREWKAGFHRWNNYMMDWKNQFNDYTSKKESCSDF

Row | SMILES | IC50 (Acetylcholinesterase) [µM] | IC50 [1] [µM]
1 | Cc1nc(-c2ccc(NC(=O)CN3CCN(C4CCCCC4)CC3)cc2)cs1 [2-(4-Cyclohexylpiperazine-1-yl)-N-[4-(2-methylthiazol-4-yl)pheny])acetamide (5c)] | 6.34 | > 100
2 | CCN1CCN(CC(=O)Nc2ccc(-c3csc(C)n3)cc2)CC1 [2-(4-Ethylpiperazine-1-yl)-N-[4-(2-methylthiazol-4-yl)pheny])acetamide (5b)] | 11.7 | > 100
3 | Cc1nc(-c2ccc(NC(=O)CN3CCN(C)CC3)cc2)cs1 [2-(4-Methylpiperazine-1-yl)-N-[4-(2-methylthiazol-4-yl)phenyl]acetamide (5a)] | 7.12 | > 100
4 | Cc1nc(-c2ccc(NC(=O)CN3CCN(c4ccccc4)CC3)cc2)cs1 [2-(4-Phenylpiperazine-1-yl)-N-[4-(2-methylthiazol-4-yl)phenyl]acetamide (5d)] | > 100 | > 100
5 | Cc1nc(-c2ccc(NC(=O)CN3CCN(Cc4ccccc4)CC3)cc2)cs1 [2-[4-(2-Benzyl)piperazine-1-yl]-N-[4-(2-methylthiazol-4-yl)phenyl]acetamide (5o)] | 0.011 | > 100
6 | Cc1nc(-c2ccc(NC(=O)CN3CCN(C(=O)c4ccco4)CC3)cc2)cs1 [2-[4-(2-Furoyl)piperazine-1-yl]-N-[4-(2-methylthiazol-4-yl)phenyl]acetamide (5p)] | 0.27 | > 100
7 | COc1ccccc1N1CCN(CC(=O)Nc2ccc(-c3csc(C)n3)cc2)CC1 [2-[4-(2-Methoxyphenyl)piperazine-1-yl]-N-[4-(2-methylthiazol-4-yl)phenyl]acetamide (5m)] | 8.42 | > 100
8 | Cc1nc(-c2ccc(NC(=O)CN3CCN(c4ccccc4C)CC3)cc2)cs1 [2-[4-(2-Methylphenyl)piperazine-1-yl]-N-[4-(2-methylthiazol-4-yl)pheny]acetamide (5l)] | > 100 | > 100
9 | Cc1nc(-c2ccc(NC(=O)CN3CCN(c4ccccn4)CC3)cc2)cs1 [2-[4-(2-Pyridyl)piperazine-1-yl]-N-[4-(2-methylthiazol-4-yl)phenyl]acetamide (5n)] | 0.051 | > 100
10 | COc1cccc(N2CCN(CC(=O)Nc3ccc(-c4csc(C)n4)cc3)CC2)c1 [2-[4-(3-Methoxyphenyl)piperazine-1-yl]-N-[4-(2-methylthiazol-4-yl)phenyl]acetamide (5k)] | > 100 | > 100
11 | Cc1cccc(N2CCN(CC(=O)Nc3ccc(-c4csc(C)n4)cc3)CC2)c1 [2-[4-(3-Methylphenyl)piperazine-1-yl]-N-[4-(2-methylthiazol-4-yl)phenyl]acetamide (5j)] | 88.4 | > 100
12 | Cc1nc(-c2ccc(NC(=O)CN3CCN(c4ccc(Cl)cc4)CC3)cc2)cs1 [2-[4-(4-Chlorophenyl)piperazine-1-yl]-N-[4-(2-methylthiazol-4-yl)phenyl]acetamide (5g)] | > 100 | > 100
13 | Cc1nc(-c2ccc(NC(=O)CN3CCN(c4ccc(F)cc4)CC3)cc2)cs1 [2-[4-(4-Florophenyl)piperazine-1-yl]-4-[4-(2-methylthiazol-4-yl)phenyl]acetamide (5h)] | > 100 | > 100
14 | COc1ccc(N2CCN(CC(=O)Nc3ccc(-c4csc(C)n4)cc3)CC2)cc1 [2-[4-(4-Methoxyphenyl)piperazine-1-yl]-N-[4-(2-methylthiazol-4-yl)phenyl]acetamide (5f)] | > 100 | > 100
15 | Cc1ccc(N2CCN(CC(=O)Nc3ccc(-c4csc(C)n4)cc3)CC2)cc1 [2-[4-(4-Methylphenyl)piperazine-1-yl]-N-[4-(2-methylthiazol-4-yl)phenyl]acetamide (5e)] | > 100 | > 100
16 | Cc1nc(-c2ccc(NC(=O)CN3CCN(c4ccc([N+](=O)[O-])cc4)CC3)cc2)cs1 [2-[4-(4-Nitrophenyl)piperazine-1-yl]-N-[4-(2-methylthiazol-4-yl)pheny]acetamide (5i)] | > 100 | > 100
